Results on 13 compounds are retold here after patent publication US6852734B2, “Indole derivatives exhibiting chymase-inhibitory activities and process for preparation thereof” (Meiji Seika Kaisha, Ltd., priority 2000, dated 2005).

One test has as its target T1, active-type human chymase (Homo sapiens, UniProt P23946).
T1 construct: made in house
T1 sequence (P23946 22-247): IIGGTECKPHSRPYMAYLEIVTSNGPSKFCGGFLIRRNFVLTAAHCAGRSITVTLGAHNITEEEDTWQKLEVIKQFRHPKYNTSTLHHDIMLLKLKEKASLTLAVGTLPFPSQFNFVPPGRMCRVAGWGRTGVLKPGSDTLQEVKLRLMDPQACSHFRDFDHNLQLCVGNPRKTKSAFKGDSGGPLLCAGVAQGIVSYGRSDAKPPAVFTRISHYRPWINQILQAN
As to the kind of experiment: Chymase inhibitory activity (Test Example 1; hydrolysis of succinyl-alanyl-histidyl-prolyl-phenylalanyl-p-nitroanilide, absorbance at 405 nm). As to conditions: recombinant active-type human chymase, 0.5 mM p-nitroanilide substrate, Buffer A pH 8.0, room temperature, 5 minutes; read-out: Chymase inhibitory activity IC50 (molar concentration). The class given is biochemical. The procedure: • (a) The preparation of the enzyme chymase was carried out as follows. That is, a recombinant pro-type human chymase to be used had been prepared in accordance with the method of Urata et al's report [“J. Biol. Chem.”, Vol.266, p.17173 (1991)]. Further, the chymase product as preliminarily purified was activated in accordance with the method of Murakami et al's report [“J. Biol. Chem.”, Vol.270, p.2218 (1991)]. The resulting activated chymase product was purified with heparin Sepharose to afford an active-type human chymase. • (b) To 50 μl of Buffer A (comprising 0.5-3.0M NaCl and 50 mM tris-HCl, pH 8.0) containing 1-5 ng of the active-type human chymase as obtained by the above-mentioned methods, was added 2 μl of a solution in […] which contained an indole derivative of this invention as the substance to be tested. Then, to the resultant mixture, there was added 50 μl of Buffer A containing 0.5 mM of succinyl-alanyl-histidyl-prolyl-phenylalanyl-p-nitroanilide (a product of Backem Co.) as the substrate. The resulting reaction mixture was incubated at room temperature for 5 minutes. The chymase inhibitory activity was assessed by measuring the changes in the absorbance of a light at 405 nm of the resulting reaction solution with the passage of time. The chymase inhibitory activity of the indole derivatives tested of this invention was evaluated in term of IC50 values (in molar concentration, M).
The indole derivatives of this invention as tested in this Example are the compounds of Compound No. 003, 021, 026, 027, 030, 076 and 078 shown in Table 1 above.
Turning to `CC(=O)NCCc1c(C(c2ccccc2OC(C)=O)c2c(O)c3ccccc3n(C)c2=O)[nH]c2ccccc12` (stereo not shown) [Compound No. 078], the IC50 came out at 1.86 nM.
Consider `COc1ccc(C(=O)OCCc2c(C(c3ccc(C(F)(F)F)cc3)c3c(O)c4ccccc4n(C)c3=O)[nH]c3ccccc23)cc1OC` (stereo not shown) [Compound No. 021], for which the IC50 was 1.4 nM.
Same read-out and setting: with `Cn1c(=O)c(C(c2cccc(Br)c2)c2[nH]c3ccccc3c2CCNS(=O)(=O)c2ccc3ccccc3c2)c(O)c2ccccc21` (stereo not shown) [Compound No. 026] the figure was 0.439 nM; with `CC(=O)OCCc1c(C(c2cccc(Br)c2)c2c(O)c3ncsc3n(C)c2=O)[nH]c2ccccc12` (stereo not shown) [Compound No. 076], 0.893 nM.
The same measure, in the same setting: then `Cn1c(=O)c(C(c2ccc(OC(F)(F)F)cc2)c2[nH]c3ccccc3c2CCOC(=O)c2ccccc2)c(O)c2ccccc21` (stereo not shown) [Compound No. 030], with 0.587 nM; and `Cn1c(=O)c(C(c2cccc(F)c2)c2[nH]c3ccccc3c2CCNC(=O)c2cc(C(F)(F)F)cc(C(F)(F)F)c2)c(O)c2ccccc21` (stereo not shown) [compound 003], with 2.64 nM; and `Cn1c(=O)c(C(c2ccc(OC(F)(F)F)cc2)c2[nH]c3ccccc3c2CCNS(=O)(=O)c2ccc3ccccc3c2)c(O)c2ccccc21` (stereo not shown) [Compound No. 027], with 5.11 nM.

For a further test, the target named is T2, chymase (Homo sapiens, UniProt P23946).
T2 sequence (P23946 22-247): T1 sequence (P23946 22-247)
Assay: not given
To be noted: confirmed in PCT/JP99/06738 (WO 00/32587); cited from earlier work.
In the case of `CC(=O)NCCc1c(C(c2ccccc2)c2c(O)c3ccccc3n(C)c2=O)[nH]c2ccccc12` (stereo not shown) [SF2809-V], the “chymase inhibitory activity (in words)” value was “has a chymase inhibitory activity”.
In the case of `Cn1c(=O)c(C(c2ccc(O)cc2)c2[nH]c3ccccc3c2CCO)c(O)c2ccccc21` (stereo not shown) [SF2809-IV], the “chymase inhibitory activity (in words)” value is reported as “has a chymase inhibitory activity”.
As for `CC(=O)NCCc1c(Cc2c(O)c3ccccc3n(C)c2=O)[nH]c2ccccc12` [SF2809-I], the “chymase inhibitory activity (in words)” value is on record as “has a chymase inhibitory activity”.
Take `CC(=O)NCCc1c(C(c2ccc(O)cc2)c2c(O)c3ccccc3n(C)c2=O)[nH]c2ccccc12` (stereo not shown) [SF2809-II]: the “chymase inhibitory activity (in words)” value is on record as “has a chymase inhibitory activity”.
`Cn1c(=O)c(C(c2ccccc2)c2[nH]c3ccccc3c2CCO)c(O)c2ccccc21` (stereo not shown) [SF2809-VI]: the “chymase inhibitory activity (in words)” value is given as “has a chymase inhibitory activity”.
For `Cn1c(=O)c(Cc2[nH]c3ccccc3c2CCO)c(O)c2ccccc21` [SF2809-III], the “chymase inhibitory activity (in words)” value is recorded as “has a chymase inhibitory activity”.
